From patent US20090220562A1, “Osteogenic and anti-adipogenic oxysterols” (priority 2005, published 2009)

Tests used:
Format in all cases: cell-based, mouse
[1] = test system: M2-10B4 marrow stromal cells; assay: Alkaline phosphatase (ALP) activity assay on whole cell extracts of M2-10B4 marrow stromal cells; conditions: for induction of alkaline phosphatase activity: 10 μM oxysterol, 3 days, osteogenic medium
Description: Cells: M2-10B4 mouse marrow stromal cell line obtained from American Type Culture Collection (ATCC, Rockville, Md., U.S.A.) was derived from bone marrow stromal cells of a (C57BL/6J x C3H/HeJ) Fl mouse, and support human and murine myelopoiesis in long-term cultures (as per ATCC) and have the ability to differentiate into osteoblastic and adipocytic cells. Unless specified, these cells were cultured in RPMI 1640 containing 10% heat-inactivated FBS, and supplemented with 1 mM sodium pyruvate, 100 U/ml penicillin, and 100 U/ml streptomycin (all from Irvine Scientific).
Cells were always treated at 90% confluence. […]
Next, a combination of 22R and 20S oxysterols (RS, 2.5 μM each) were added in the presence or absence of SC as indicated. After 3 days, ALP activity was measured as described earlier. […] (B) M2 cells were treated as described in (A) and after 10 days matrix mineralization in cultures was quantified by a ^45Ca incorporation assay as described earlier. […] (C) M2 cells were pretreated with 20 μM SC for 4 hours, followed by the addition of RS in the presence or absence of SC as described above. After 8 days, total RNA was isolated and analyzed for osteocalcin (Osc) and […] expression by Northern blotting as previously described. Data from densitometric analysis of the Northern blot is shown in (D) as the average of duplicate samples, normalized to 18S rRNA. (E) M2 cells at confluence were pretreated for 2 hours with control vehicle (C), or PLA2 inhibitors ACA (25 μM) and AACOCF3 (AAC, 20 μM), in osteogenic medium. Next, a combination of 22R and 20S oxysterols (RS, 2.5 μM) was added in the presence or absence of the inhibitors as indicated. After 3 days, ALP activity was measured as previously described. […] (F) M2 cells were treated as described in (E). After 10 days, matrix mineralization in cultures was quantified using a ^45Ca incorporation assay as previously described. […]

osteocalcin mRNA = assay: Northern blotting for osteocalcin mRNA in M2-10B4 cells; conditions: for induction of osteocalcin gene expression by individual oxysterols: 0.5 to less than 10 μM, as many as 14 days (data not shown)
Description: RNA isolation and Northern blot analysis—Following treatment of cells under appropriate experimental conditions, total RNA was isolated using the RNA isolation kit from Stratagene (La Jolla, Calif., U.S.A.). Total RNA ([…]) was run on a 1% agarose/formaldehyde gel and transferred to Duralon-UV membranes (Strategene, CA, U.S.A.) and cross-linked with UV light. The membranes were hybridized overnight at 60 degree C. with ^32P-labeled mouse osteocalcin cDNA probe, mouse lipoprotein lipase (LPL), mouse adipocyte protein 2 (aP^2) PCR-generated probes, human 28S or 18S rRNA probes obtained from Geneka Biotechnology (Montreal, Quebec, Canada) and Maxim Biotech (San Francisco, Calif., U.S.A.), respectively. The PCR products were generated using primer sets synthesized by Invitrogen (Carlsbad, Calif., U.S.A.) with the following specifications: mouse aP2 gene (accession no. M13261); sense (75-95) 5′-[…]-3′, antisense (362-383) 5′-[…]-3′, generating a PCR product of 309 base pairs. Mouse LPL (accession no. XM—134193); sense (1038-1058) 5′-[…]-3′, antisense (1816-1836) 5′-[…]-3′, generating a PCR product of 799 base pairs. The PCR products were gel-purified and sequenced by the UCLA sequencing core, showing the highest similarity to their respective GenBank entries. Following hybridization, the blots were washed twice at room temperature with 2×SSC+0.1% SDS, and then twice at 60 degree C. with 0.5×SSC+0.1% SDS, and exposed to X-ray film. The extent of gene induction was determined by densitometry.
After 4 and 8 days, total RNA from duplicate samples was isolated and analyzed for osteocalcin (Osc) and 28S rRNA expression by Northern blotting as described. FIG. 3E is a radiogram of Northern blotting for osteocalcin mRNA in M2 cells exposed to a control or combination of oxysterols for 4 or 8 days. FIG. 3F is a bar graph depicting the relative demsometric units of osteocalcin mRNA in M2 cells exposed to a control or combination of oxysterols for 4 -or 8 days. Data from densitometric analysis of the Northern blot is shown in (F) as the average of duplicate samples, normalized to 28S rRNA.
Next, a combination of 22R and 20S oxysterols (RS, 2.5 μM each) were added in the presence or absence of SC as indicated. After 3 days, ALP activity was measured as described earlier. […] (B) M2 cells were treated as described in (A) and after 10 days matrix mineralization in cultures was quantified by a ^45Ca incorporation assay as described earlier. […] (C) M2 cells were pretreated with 20 μM SC for 4 hours, followed by the addition of RS in the presence or absence of SC as described above. After 8 days, total RNA was isolated and analyzed for osteocalcin (Osc) and […] expression by Northern blotting as previously described. Data from densitometric analysis of the Northern blot is shown in (D) as the average of duplicate samples, normalized to 18S rRNA. (E) M2 cells at confluence were pretreated for 2 hours with control vehicle (C), or PLA2 inhibitors ACA (25 μM) and AACOCF3 (AAC, 20 μM), in osteogenic medium. Next, a combination of 22R and 20S oxysterols (RS, 2.5 μM) was added in the presence or absence of the inhibitors as indicated. After 3 days, ALP activity was measured as previously described. […] (F) M2 cells were treated as described in (E). After 10 days, matrix mineralization in cultures was quantified using a ^45Ca incorporation assay as previously described. Results from a representative of three experiments are shown, reported as the mean of quadruplicate determinations ±SD, normalized to protein concentration (p<0.01 for RS vs. RS+ACA and RS+AAC).
ALP activity was measured after 2 days, as described. […] (B) M2 cells were treated as described in (A). After 10 days, matrix mineralization in cultures was quantified using a ^45Ca incorporation assay as described. […] (C) M2 cells were treated under similar conditions as those described above. […]

marrow stromal cells = assay: Osteogenic differentiation of marrow stromal cells (marker not specified: ALP activity, osteocalcin mRNA, mineral formation); conditions: pretreatment and co-treatment; 20S 5-15 μM
Description: The purpose of the study was to identify other osteogenic and anti-adipogenic oxysterols based on the chemical structure of previously identified oxysterols. The ability of such candidate oxysterol molecules to induce the formation of osteoblastic cells in cultures of marrow stromal cells (which are progenitors of osteoblastic cells that make bone) were tested. In order to assess osteogenic differentiation of cells, one or more markers of osteogenic differentiation were measured in untreated cells and cells treated with the test oxysterols. These markers included: alkaline phosphatase activity, osteocalcin mRNA expression and mineral formation in cultures of marrow stromal cells. Activation of either one or more than one marker by a single or combination oxysterols is indicative of their osteogenic property.

Compound | induction of alkaline phosphatase activity [1] | alkaline phosphatase (ALP) activity ([1]; doses of 5-15 μM) | induction of osteocalcin gene expression by individual oxysterols (osteocalcin mRNA) | osteocalcin mRNA expression (osteocalcin mRNA; doses of 5-15 μM) | enhancement of 20S-hydroxycholesterol's induction of ALP activity, Runx2 DNA binding and protein expression, osteocalcin mRNA expression and mineralization (marrow stromal cells)
CC(C)CCC[C@](C)(O)[C@H]1CC[C@H]2[C@@H]3CC=C4C[C@@H](O)CC[C@]4(C)[C@H]3CC[C@@]21C [20S-hydroxycholesterol] | induced | induction | unable to induce | induction | –
CC(C)CC[C@H](O)[C@@H](C)[C@H]1CC[C@H]2[C@@H]3CC=C4C[C@@H](O)CC[C@]4(C)[C@H]3CC[C@]12C [22S-hydroxycholesterol] | induced | – | unable to induce | – | greatly enhanced
CC(C)CC[C@@H](O)[C@@H](C)[C@H]1CC[C@H]2[C@@H]3CC=C4C[C@@H](O)CC[C@]4(C)[C@H]3CC[C@]12C [22R-hydroxycholesterol] | induced | – | unable to induce | – | greatly enhanced
